Experimental data taken from ChEMBL document CHEMBL3832068, “DailyMed|setid=9ddd37f9-299e-4c98-91ed-deeb72c63b00 | GRIS-PEG - griseofulvin tablet, film coated|State of Florida DOH Central Pharmacy”.

Tests used:
[1] = (§1) Mean pharmacokinetic parameters for Griseofulvin following single dose administration of unaltered 250 mg ultramicrocrystalline Griseofulvin tablets, with or without applesauce, to 24 healthy volunteers; assay type: ADME, organism-based; parameters: dose 250 mg, route oral; settings: human, in vivo, dietary status Fasting, dosed compound id 34, dosed compound name GRISEOFULVIN, gender male and female, regimen Single dose, tissue Plasma
Homo sapiens = assay: as §1; assay type: ADME, organism-based; parameters: dose 250 mg, route oral; settings: in vivo, po, dietary status Fasting, dosed compound id 34, dosed compound name GRISEOFULVIN, gender male and female, regimen Single dose, tissue Plasma

AUC ([1]; po, 250 mg): 8.62 µg·h/mL | Cmax ([1]; po, 250 mg): 0.601 µg/mL | Tmax ([1]; dose 250 mg, route oral): 4.04 h | Tmax (Homo sapiens; dose 250 mg): 3.08 h | AUC (Homo sapiens): 9.02371 µg·h/mL | Cmax (Homo sapiens): 0.67261 µg/mL
SMILES: COC1=CC(=O)C[C@@H](C)[C@]12Oc1c(Cl)c(OC)cc(OC)c1C2=O [GRISEOFULVIN]
